According to ChEMBL document CHEMBL1201862, “PubChem BioAssay data set” (2004):
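Test compounds were applied to cells in 96-well plates for 48 hours at 5 doses. Abbreviation: GI50, concentration required for 50% inhibition of growth.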 Active and inactive are the calls of the source. No stated cut-off is given here; in the data, active = GI50 up to about 1.1 µM and inactive = higher.

Legend:
Assay in all cases: NCI anticancer screen, dose series, 48 h
[1] = system: 786-0
[2] = system: A549
[3] = system: CAKI-1
[4] = system: CCRF-CEM
[5] = system: COLO 205
[6] = system: DLD-1
[7] = system: DMS-114
[8] = system: DMS-273
[9] = system: EKVX
[10] = system: HCC 2998
[11] = system: HCT-15
[12] = system: HOP-18
[13] = system: HOP-62
[14] = system: HT-29
[15] = system: IGROV-1
[16] = system: K562
[17] = system: KM-20L2
[18] = system: KM12
[19] = system: LOX IMVI
[20] = system: LXFL 529
[21] = system: M14
[22] = system: M19-MEL
[23] = system: MOLT-4
[24] = system: Malme-3M
[25] = system: NCI-H23
[26] = system: OVCAR-3
[27] = system: OVCAR-4
[28] = system: OVCAR-5
[29] = system: OVCAR-8
[30] = system: RPMI-8226
[31] = system: RXF 393
[32] = system: RXF 631
[33] = system: SF-268
[34] = system: SF-295
[35] = system: SF-539
[36] = system: SK-MEL-28
[37] = system: SK-MEL-2
[38] = system: SK-OV-3
[39] = system: SN12C
[40] = system: SNB-19
[41] = system: SNB-75
[42] = system: SNB-78
[43] = system: SW-620
[44] = system: TK-10
[45] = system: U-251
[46] = system: UACC-257
[47] = system: UACC-62
[48] = system: UO-31
[49] = system: XF498
[50] = system: A498
[51] = system: ACHN
[52] = system: BT-549
[53] = system: DU-145
[54] = system: HCT-116
[55] = system: HL-60
[56] = system: HOP-92
[57] = system: Hs-578T
[58] = system: MCF7
[59] = system: MDA-MB-231
[60] = system: MDA-N
[61] = system: NCI-H226
[62] = system: NCI-H460
[63] = system: NCI-H522
[64] = system: PC-3
[65] = system: SK-MEL-5
[66] = system: SR
[67] = system: T47D

## CC(C)(C)c1cc2nc(c1)C(C(F)(F)F)(C(F)(F)F)OB(Br)OC2(C(F)(F)F)C(F)(F)F
[1]
  GI50: 0.115 µM (active)
[2]
  GI50: < 0.01 µM (active)
[3]
  GI50: 0.0414 µM (active)
[4]
  GI50: < 0.01 µM (active)
[5]
  GI50: < 0.01 µM (active)
[6]
  GI50: 0.0248 µM (active)
[7]
  GI50: < 0.01 µM (active)
[8]
  GI50: < 0.01 µM (active)
[9]
  GI50: < 0.01 µM (active)
[10]
  GI50: 0.233 µM (active)
[11]
  GI50: 0.0299 µM
[12]
  GI50: < 0.01 µM (active)
[13]
  GI50: 0.0367 µM (active)
[14]
  GI50: 0.156 µM (active)
[15]
  GI50: 0.0269 µM (active)
[16]
  GI50: 0.0434 µM (active)
[17]
  GI50: < 0.01 µM (active)
[18]
  GI50: < 0.01 µM (active)
[19]
  GI50: 0.0378 µM (active)
[20]
  GI50: 0.261 µM (active)
[21]
  GI50: 0.0209 µM (active)
[22]
  GI50: 0.0268 µM (active)
[23]
  GI50: < 0.01 µM (active)
[24]
  GI50: 0.617 µM (active)
[25]
  GI50: 4.47 µM (inactive)
[26]
  GI50: < 0.01 µM (active)
[27]
  GI50: < 0.01 µM (active)
[28]
  GI50: 0.0532 µM (active)
[29]
  GI50: < 0.01 µM (active)
[30]
  GI50: 0.0607 µM (active)
[31]
  GI50: 10 µM (inactive)
[32]
  GI50: 0.0836 µM (active)
[33]
  GI50: 3.01 µM (inactive)
[34]
  GI50: 0.0834 µM (active)
[35]
  GI50: 0.316 µM (active)
[36]
  GI50: 4.8 µM (inactive)
[37]
  GI50: 1.47 µM (inactive)
[38]
  GI50: 1.3 µM (inactive)
[39]
  GI50: 0.173 µM (active)
[40]
  GI50: 0.156 µM (active)
[41]
  GI50: 3.56 µM (inactive)
[42]
  GI50: 0.12 µM (active)
[43]
  GI50: < 0.01 µM (active)
[44]
  GI50: 0.0802 µM (active)
[45]
  GI50: 0.084 µM (active)
[46]
  GI50: < 0.01 µM (active)
[47]
  GI50: 0.0176 µM (active)
[48]
  GI50: 0.292 µM (active)
[49]
  GI50: 1.04 µM (active)

## Oc1cc(-c2ccccc2)nc2cc3c(cc12)OCO3
[1]
  GI50: 9.95 µM (inactive)
[50]
  GI50: 15.1 µM (inactive)
[2]
  GI50: 14 µM (inactive)
[51]
  GI50: 15.2 µM (inactive)
[52]
  GI50: 40.8 µM (inactive)
[4]
  GI50: 12.2 µM (inactive)
[5]
  GI50: 6.21 µM (inactive)
[6]
  GI50: 6.56 µM (inactive)
[8]
  GI50: 11.7 µM (inactive)
[53]
  GI50: 79.4 µM (inactive)
[9]
  GI50: 15.6 µM (inactive)
[10]
  GI50: 15.6 µM (inactive)
[54]
  GI50: 8 µM (inactive)
[11]
  GI50: 18.8 µM
[55]
  GI50: 4.11 µM (inactive)
[12]
  GI50: > 100 µM (inactive)
[13]
  GI50: 9.55 µM (inactive)
[56]
  GI50: 3.98 µM (inactive)
[14]
  GI50: 7.18 µM (inactive)
[57]
  GI50: 24.5 µM (inactive)
[15]
  GI50: 13.6 µM (inactive)
[16]
  GI50: 4.06 µM (inactive)
[17]
  GI50: 7.35 µM (inactive)
[18]
  GI50: 1.54 µM (inactive)
[19]
  GI50: 11.6 µM (inactive)
[20]
  GI50: 1.82 µM (inactive)
[21]
  GI50: 7.36 µM (inactive)
[22]
  GI50: 3.21 µM (inactive)
[58]
  GI50: 36.8 µM (inactive)
[59]
  GI50: 85.5 µM (inactive)
[60]
  GI50: 4.11 µM (inactive)
[23]
  GI50: 15.1 µM (inactive)
[24]
  GI50: 3.76 µM (inactive)
[61]
  GI50: 11.8 µM (inactive)
[25]
  GI50: 8.55 µM (inactive)
[62]
  GI50: 7.87 µM (inactive)
[63]
  GI50: 3.93 µM (inactive)
[26]
  GI50: 10 µM (inactive)
[27]
  GI50: > 97.3 µM (inactive)
[28]
  GI50: > 84.3 µM (inactive)
[29]
  GI50: 14.5 µM (inactive)
[64]
  GI50: 30.2 µM (inactive)
[30]
  GI50: 11 µM (inactive)
[31]
  GI50: 5.69 µM (inactive)
[32]
  GI50: 2.9 µM (inactive)
[33]
  GI50: 3.83 µM (inactive)
[34]
  GI50: 8.57 µM (inactive)
[35]
  GI50: 6.05 µM (inactive)
[36]
  GI50: 6.75 µM (inactive)
[37]
  GI50: 19.5 µM (inactive)
[65]
  GI50: 3.52 µM (inactive)
[38]
  GI50: 6.92 µM (inactive)
[39]
  GI50: 12.8 µM (inactive)
[40]
  GI50: 20 µM (inactive)
[41]
  GI50: 2.6 µM (inactive)
[42]
  GI50: 3.72 µM (inactive)
[66]
  GI50: 3.36 µM (inactive)
[43]
  GI50: 6.15 µM (inactive)
[67]
  GI50: 42.1 µM (inactive)
[44]
  GI50: 39 µM (inactive)
[45]
  GI50: 29.2 µM (inactive)
[46]
  GI50: 44.5 µM (inactive)
[47]
  GI50: 5.52 µM (inactive)
[48]
  GI50: 13.1 µM (inactive)
[49]
  GI50: 26.9 µM (inactive)
